This note sets out measurements from patent publication US11440923B2, “Substituted macrocyclic indole derivatives” (Bayer Aktiengesellschaft, priority 2017, dated 2022).

Counter-ions that a name gives are not always drawn. Like-named read-outs stand apart in the source and are kept apart here. Some results are limits rather than exact numbers.

What all share (format): cell-based
One series has as its system AMO-1 cells. Briefly: Antiproliferation assay AMO-1 (Assay 7). How it is done: (§1) Assessment of the Anti-Proliferative Effect of Compounds in Different Cell Lines
(§2) The impact of compounds on the proliferation of different cell lines was assessed using the CellTiter-Glo® Luminescent Cell Viability reagent from Promega (G7573).
(§3) In parallel, cells were plated in a reference (day 0) plate for time zero determination. Cells were incubated in a humidified incubator at 37° C. overnight.
(§4) Rim wells were excluded. The cells were incubated for 72 h hours in a humidified incubator at 37° C. The day 0 plate was measured by adding 30 μL/well of CTG solution (CellTiter-Glo® Luminescent Cell Viability reagent, Promega G7573) to time zero wells in the reference plate followed by a 10 minutes incubation and luminescence reading at 0.1 ms. using the PHERAstar FS microplate reader (BMG Labtech).
(§5) After 72 h incubation, the treated plates were measured in the same way as the day 0 plate mentioned above. The Bella DRC Master Sheet was used to calculate IC50s, with CI=day 0 values and C0=DMSO control values.

Series [1] relates to SUDHL5 cells. Briefly: Antiproliferation assay SUDHL5 (Assay 7). How it is done: as §1, §2, §3, §4, §5
The subject of series [2] is SUDHL10 cells. Briefly: Induction of cytotoxicity in SUDHL10 cells (Assay 6). Conditions: 5 h, CellTiter-Glo, read-out: Cytotox SUDHL10 IC50 (median). How it is done: (§6) Assay 6 Induction of Cytotoxicity Upon Treatment of Cells with Selected Compounds
(§7) In principle, compounds that induce apoptosis will concomitantly induce cell cytotoxicity. Therefore, cytotoxicity assays were run in parallel in SUDHL5 and SUDHL10 cells.
(§8) As a control, medium without cells was also added to the plate. Cells were incubated in a humidified incubator at 37° C. overnight. […] Rim wells were excluded. The cells were incubated for 5 h hours in a humidified incubator at 37° C. After this incubation, 30 μL of CellTiter-Glo® Luminescent Cell Viability reagent (Promega, G7573) was added to each well using the Multidrop Combi Reagent Dispenser, followed by 15 min incubation on a shaker at room temperature. Finally, luminescence was read at 0.1 ms, with a gain of 3000 using the PHERAstar FS microplate reader (BMG Labtech).

A further series has as its system HMC-1-8 cells. Briefly: Antiproliferation assay HMC-1-8 (Assay 7). How it is done:
as §1, §2, §3, §4, §5

The subject of series [3] is SUDHL5 cells. Briefly: Induction of caspase-3/7 activity in SUDHL5 cells (Assay 4). How it is done:
(§9) Induction of Caspase-3/7 Activity Upon Treatment of Cells with Selected Compounds
(§10) The BH3-domain of MCL-1 sequesters pro-apoptotic proteins, thereby inhibiting apoptosis. In contrast, MCL-1 inhibitors are expected to antagonize this effect leading to an increase in apoptosis, which can be determined by measuring the activity of caspase-3/7.
(§11) The activity of caspase-3/7 was determined in DLBCL (Diffuse large B-cell lymphoma) cell lines (SUDHL5 and SUDHL10) upon treatment with different compounds, using the Caspase-Glo® 3/7 reagent from Promega (G8092).
(§12) As a control, medium without cells was also added to the plate. Cells were incubated in a humidified incubator at 37° C. overnight.
(§13) Rim wells were excluded. The cells were incubated for 3 h hours in a humidified incubator at 37° C. After this incubation, 30 μL of Caspase-Glo® 3/7 reagent (Promega G8092) was added to each well using the Multidrop Combi Reagent Dispenser, followed by 1 h incubation at 37° C. Finally, luminescence was read at 0.1 ms, with a gain of 3000 using the PHERAstar FS microplate reader (BMG Labtech).
(§14) For the evaluation of the results, the background measured with “medium-only” was subtracted from all other values. Then, the values were normalized to DMSO-only treated cells (every value was divided by the mean of the DMSO control).

The subject of series [4] is SUDHL10 cells. Description: Induction of caspase-3/7 activity in SUDHL10 cells (Assay 4). How it is done:
as §9, §10, §11, §12, §13, §14

Series [5] deals with SUDHL5 cells. Description: Induction of cytotoxicity in SUDHL5 cells (Assay 6). The following applies: 5 h, CellTiter-Glo, read-out: Cytotox SUDHL5 IC50 (median). How it is done:
as §6, §7, §8

[6] abbreviates: 72 h, CellTiter-Glo; read-out: Antiproli AMO-1 IC50 median.
[7] abbreviates: 72 h, CellTiter-Glo; read-out: Antiproli SUDHL5 IC50 (median).
[8] abbreviates: 72 h, CellTiter-Glo; read-out: Antiproli HMC-1-8 IC50 median.
Setting [9] is: caspase-3/7 induction, 3 h; read-out: Caspase SUDHL5 EC50 (median).
Setting [10] is: caspase-3/7 induction, 3 h; read-out: Caspase SUDHL10 EC50 (median).

Take `CCc1c2c(nn1C)C(CCN(C)C)OCCCCn1c(C(=O)O)c(CCCOc3cccc4cc(F)ccc34)c3ccc(Cl)c-2c31` (single isomer, unassigned) [Example 85, 4-chloro-15-[2-(dimethylamino)ethyl]-3-ethyl-7-{3-[(6-fluoronaphthalen-1-yl)oxy]propyl}-2-methyl-2,10,11,12,13,15-hexahydropyrazolo[4′,3′:9,10][1,6]oxazacycloundecino[8,7,6-hi]indole-8-carboxylic Acid]: the IC50 is 5170 nM with AMO-1 cells (setting [6]); 910 nM with SUDHL5 cells [1] (setting [7]); 2000 nM in the series with SUDHL10 cells [2]; greater than 33000 nM with HMC-1-8 cells (setting [8]); 870 nM in the series with SUDHL5 cells [5]. Besides, the EC50 is 950 nM with SUDHL5 cells [3] (setting [9]) and 1600 nM with SUDHL10 cells [4] (setting [10]).
For the compound `CCc1c2c(nn1C)C1CCCCN1CCCCn1c(C(=O)O)c(CCCOc3cccc4ccccc34)c3ccc(Cl)c-2c31` (racemic) [Example 103, (rac)-18-chloro-1-ethyl-2-methyl-15-[3-(1-naphthyloxy)propyl]-2,3b,4,5,6,7,9,10,11,12-decahydropyrazolo[3′,4′:8,9]pyrido[1′,2′:6,7][1,6]diazacycloundecino[10,11,1-hi]indole-14-carboxylic Acid], the IC50 in the series with AMO-1 cells (Homo sapiens, AMO1, 72 h, 72 h, CellTiter-Glo; read-out: Antiproli AMO-1 IC50 median) turned out to be 1950 nM; in the series with SUDHL5 cells [1] (Homo sapiens, SU-DHL-5, 72 h, 72 h, CellTiter-Glo; read-out: Antiproli SUDHL5 IC50 (median)), 2000 nM; in the series with SUDHL10 cells [2] (Homo sapiens, SU-DHL10, 5 h), 1700 nM; with HMC-1-8 cells (72 h, CellTiter-Glo, read-out: Antiproli HMC-1-8 IC50 median) it was 19800 nM; in the series with SUDHL5 cells [5] (Homo sapiens, SU-DHL-5, 5 h), 1100 nM. The EC50 stood at 1400 nM with SUDHL5 cells [3] (Homo sapiens, SU-DHL-5, 3 h, caspase-3/7 induction, 3 h; read-out: Caspase SUDHL5 EC50 (median)) and 2200 nM in the series on SUDHL10 cells [4] (Homo sapiens, SU-DHL10, 3 h, caspase-3/7 induction, 3 h; read-out: Caspase SUDHL10 EC50 (median)).
For `CCc1c2c(nn1C)C(CCN(C)C)OCCCCn1c(C(=O)O)c(CCCOc3cccc4cc(F)ccc34)c3ccc(Cl)c-2c31` (single isomer, unassigned) [Example 84, 4-chloro-15-[2-(dimethylamino)ethyl]-3-ethyl-7-{3-[(6-fluoronaphthalen-1-yl)oxy]propyl}-2-methyl-2,10,11,12,13,15-hexahydropyrazolo[4′,3′:9,10][1,6]oxazacycloundecino[8,7,6-hi]indole-8-carboxylic Acid], the IC50 is 9560 nM with AMO-1 cells (setting [6]); 3100 nM in the series with SUDHL5 cells [1] (setting [7]); 4400 nM in the series on SUDHL10 cells [2]; greater than 33000 nM with HMC-1-8 cells (setting [8]); 1700 nM in the series on SUDHL5 cells [5]. The EC50 in the series on SUDHL5 cells [3] (setting [9]) came out at 1800 nM; with SUDHL10 cells [4] (setting [10]), 5400 nM.
`CCc1c2c(nn1C)C(CCC(C)(C)O)OCCCCn1c(C(=O)O)c(CCCOc3cccc4cc(F)ccc34)c3ccc(Cl)c-2c31` (single isomer, unassigned; enantiomer 2) [Example 76, (−)-4-chloro-3-ethyl-7-{3-[(6-fluoronaphthalen-1-yl)oxy]propyl}-15-(3-hydroxy-3-methylbutyl)-2-methyl-2,10,11,12,13,15-hexahydropyrazolo[4′,3′:9,10][1,6]oxazacycloundecino[8,7,6-hi]indole-8-carboxylic Acid—N-ethylethanamine Salt (Enantiomer 2)]: the IC50 with AMO-1 cells (setting [6]) was determined as 3870 nM; in the series on SUDHL5 cells [1] (setting [7]), 4600 nM; in the series with SUDHL10 cells [2], 5200 nM; in the series with HMC-1-8 cells (setting [8]) it was 13000 nM; in the series with SUDHL5 cells [5], 3600 nM. Also, the figures for the EC50 in the series with SUDHL5 cells [3] (setting [9]) and with SUDHL10 cells [4] (setting [10]) were 3300 nM and 5800 nM, respectively.
`CCc1c2c(nn1C)C(CCN1CC(F)(F)C1)OCCCCn1c(C(=O)O)c(CCCOc3cccc4cc(F)ccc34)c3ccc(Cl)c-2c31` (single isomer, unassigned; (-)) [Example 79, (−)-4-chloro-15-[2-(3,3-difluoroazetidin-1-yl)ethyl]-3-ethyl-7-{3-[(6-fluoronaphthalen-1-yl)oxy]propyl}-2-methyl-2,10,11,12,13,15-hexahydropyrazolo[4′,3′:9,10][1,6]oxazacycloundecino[8,7,6-hi]indole-8-carboxylic Acid—N-ethylethanamine Salt]: the concentration for half-maximal inhibition (IC50) in the series on AMO-1 cells (setting [6]) was determined as 3700 nM; in the series on SUDHL5 cells [1] (setting [7]) it was 2200 nM; with SUDHL10 cells [2], 3800 nM; in the series with HMC-1-8 cells (setting [8]), 23500 nM; with SUDHL5 cells [5], 4100 nM. Moreover, the figures for the EC50 in the series with SUDHL5 cells [3] (setting [9]) and in the series with SUDHL10 cells [4] (setting [10]) were 3700 nM and 5400 nM, respectively.
With `CCc1c2c(nn1C)C(CCN(C)C)OCCCCn1c(C(=O)O)c(CCCOc3cccc4cc(F)ccc34)c3ccc(Cl)c-2c31` (single isomer, unassigned) [Example 82, 4-chloro-15-[2-(dimethylamino)ethyl]-3-ethyl-7-{3-[(6-fluoronaphthalen-1-yl)oxy]propyl}-2-methyl-2,10,11,12,13,15-hexahydropyrazolo[4′,3′:9,10][1,6]oxazacycloundecino[8,7,6-hi]indole-8-carboxylic Acid], the IC50 with AMO-1 cells (setting [6]) is 7560 nM; in the series with SUDHL5 cells [1] (setting [7]), 4200 nM; in the series on SUDHL10 cells [2], 3100 nM; in the series with HMC-1-8 cells (setting [8]) it was greater than 33000 nM; in the series with SUDHL5 cells [5] it was 2600 nM. The concentration for a half-maximal effect (EC50) with SUDHL5 cells [3] (setting [9]) is 2700 nM; with SUDHL10 cells [4] (setting [10]), 4500 nM.
With `CCc1c2c(nn1C)C(CCN1CCOCC1)N(C)CCCCn1c(C(=O)O)c(CCCOc3cccc4ccccc34)c3ccc(Cl)c-2c31` (racemic) [Example 100, (rac)-4-chloro-3-ethyl-2,14-dimethyl-(15-rac)-[2-(morpholin-4-yl)ethyl]-7-{3-[(naphthalen-1-yl)oxy]propyl}-10,11,12,13,14,15-hexahydro-2H-pyrazolo[3′,4′:8,9][1,6]diazacycloundecino[10,11,1-hi]indole-8-carboxylic], the concentration for half-maximal inhibition (IC50) in the series on AMO-1 cells (setting [6]) was 224 nM; in the series on SUDHL5 cells [1] (setting [7]), 260 nM; in the series with SUDHL10 cells [2], 320 nM; in the series on HMC-1-8 cells (setting [8]), 3560 nM; with SUDHL5 cells [5] it was 340 nM. For the same compound, the EC50 was determined as 210 nM in the series on SUDHL5 cells [3] (setting [9]) and 230 nM with SUDHL10 cells [4] (setting [10]).
For `CCc1c2c(nn1C)C(CCC1CCOCC1)OCCCCn1c(C(=O)O)c(CCCOc3cccc4cc(F)ccc34)c3ccc(Cl)c-2c31` (single isomer, unassigned; enantiomer 2) [Example 64, (−)-4-chloro-3-ethyl-7-{3-[(6-fluoronaphthalen-1-yl)oxy]propyl}-2-methyl-15-[2-(oxan-4-yl)ethyl]-2,10,11,12,13,15-hexahydropyrazolo[4′,3′:9,10][1,6]oxazacycloundecino[8,7,6-hi]indole-8-carboxylic Acid—N-ethylethanamine Salt (Enantiomer 2)], the IC50 was determined as 1030 nM in the series with AMO-1 cells (read-out: Antiproli AMO-1 IC50 median; 72 h, CellTiter-Glo); 1600 nM in the series with SUDHL5 cells [1] (read-out: Antiproli SUDHL5 IC50 (median); 72 h, CellTiter-Glo); 2600 nM in the series with SUDHL10 cells [2]; 7510 nM in the series with HMC-1-8 cells (read-out: Antiproli HMC-1-8 IC50 median; 72 h, CellTiter-Glo); 810 nM with SUDHL5 cells [5]. Also, the EC50 was 740 nM in the series on SUDHL5 cells [3] (read-out: Caspase SUDHL5 EC50 (median); caspase-3/7 induction, 3 h) and 1300 nM in the series with SUDHL10 cells [4] (read-out: Caspase SUDHL10 EC50 (median); caspase-3/7 induction, 3 h).

What is called IC50 is the concentration that gives 50% inhibition. One may read the EC50 as the concentration that produces a half-maximal response.
